In US20240383922A1, “KRAS Modulating Compounds” (Gilead Sciences, Inc., priority 2023, published 2024):
Like-named read-outs stand apart in the source and are kept apart here.

Legend:
[1] = system: cellular pERK in Kuramochi (WT KRAS) cell-line; test: Cell based pERK assay (HTRF), Kuramochi; conditions: Kuramochi (WT KRAS) cells, 2 hours incubation
Summary of the method: (§1)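 Cells plated d−1; AsPC-1 5000/well, others 7500/well. Media: RPMI + 10% FBS (AsPC-1, NCI-H441, Kuramochi), DMEM (MIA-PaCa-2). Cmpd 3-fold dilutions, 2 h 37 °C, 5% CO2. pERK1/2 HTRF, RT o/n, 665/615 ratio. IC50 by sigmoidal fit.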

GDP-loaded KRAS-G12C = GDP-loaded KRAS-G12C (Homo sapiens (Human), UniProt P01116, G12C); test: KRAS (GDP) biochemical TR-FRET probe displacement assay, KRAS-G12C; format: binding; conditions: 2 hours
GDP-loaded KRAS-G12C, sequence (P01116-2 other isoform, or with tags, fused parts or gaps G12C): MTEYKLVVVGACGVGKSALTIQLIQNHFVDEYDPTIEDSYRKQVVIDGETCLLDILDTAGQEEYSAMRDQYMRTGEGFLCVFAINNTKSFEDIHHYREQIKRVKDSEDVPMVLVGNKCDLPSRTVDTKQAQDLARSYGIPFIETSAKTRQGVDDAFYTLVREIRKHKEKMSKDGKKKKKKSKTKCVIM
Procedure: (§2) KRAS (GDP) Biochemical Assays:
(§3) Compounds were serially diluted (1:3) in DMSO. The LabCyte ECHO Acoustic dispenser was used to pre-spot the assay plates (384-well Non-Binding Surface plates, Corning, Catalog #3824) with 50 nL of compound. 5 μL of 2× enzyme concentration was added to the pre-spotted plates and incubated for 30 minutes before adding 5 μL of 2× concentration of Eu-streptavidin and Cy-5 labelled probe (10 μL final reaction volume). The plates were incubated at room temperature for 2 hours before measuring TR-FRET ratio (665 nm/615 nm) on the Envision multimode plate reader. The ratios were normalized to a positive (saturating concentration of known inhibitor) and negative (DMSO) control and plotted against the log of compound concentration.

GDP-loaded KRAS-G12V = GDP-loaded KRAS-G12V (Homo sapiens (Human), UniProt P01116, G12V); test: KRAS (GDP) biochemical TR-FRET probe displacement assay, KRAS-G12V; format: binding; conditions: 2 hours
GDP-loaded KRAS-G12V, sequence (P01116-2 other isoform, or with tags, fused parts or gaps G12V): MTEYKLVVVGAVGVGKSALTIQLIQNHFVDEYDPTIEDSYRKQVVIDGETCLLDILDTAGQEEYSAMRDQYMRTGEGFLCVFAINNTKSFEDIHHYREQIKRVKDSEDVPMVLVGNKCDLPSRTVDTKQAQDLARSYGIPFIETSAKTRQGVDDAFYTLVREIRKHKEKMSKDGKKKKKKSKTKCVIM
Procedure: as §2, §3

[2] = system: cellular pERK in MIA-PaCa-2 (KRAS-G12C) cell-line; test: Cell based pERK assay (HTRF), MIA-PaCa-2; conditions: MIA-PaCa-2 (KRAS-G12C) cells, 2 hours incubation, read-out: MIAPaCa2 pERK EC50
Summary of the method: as §1

[3] = system: cellular pERK in NCI-H441 (KRAS-G12V) cell-line; test: Cell based pERK assay (HTRF), NCI-H441; conditions: NCI-H441 (KRAS-G12V) cells, 2 hours incubation
Summary of the method: as §1

[4] = biological target: GDP-loaded wild-type KRAS (WT) (Homo sapiens (Human), UniProt P01116); test: KRAS (GDP) biochemical TR-FRET probe displacement assay, WT KRAS; format: binding; conditions: 2 hours
GDP-loaded wild-type KRAS (WT), sequence (P01116-2 other isoform, or with tags, fused parts or gaps): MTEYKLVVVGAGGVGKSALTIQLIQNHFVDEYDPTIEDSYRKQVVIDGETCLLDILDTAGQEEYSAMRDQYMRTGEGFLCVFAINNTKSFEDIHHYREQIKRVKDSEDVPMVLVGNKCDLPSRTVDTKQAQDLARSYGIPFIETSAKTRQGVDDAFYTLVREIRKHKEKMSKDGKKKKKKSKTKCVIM
Procedure: as §2, §3

[5] = system: cellular pERK in ASPC-1 (KRAS G12D) cell-line; test: Cell based pERK assay (HTRF), ASPC-1; conditions: ASPC-1 (KRAS G12D) cells, 2 hours incubation
Summary of the method: as §1

GDP-loaded KRAS-G12D = GDP-loaded KRAS-G12D (Homo sapiens (Human), UniProt P01116, G12D); test: KRAS (GDP) biochemical TR-FRET probe displacement assay, KRAS-G12D; format: binding; conditions: 2 hours
GDP-loaded KRAS-G12D, sequence (P01116-2 other isoform, or with tags, fused parts or gaps G12D): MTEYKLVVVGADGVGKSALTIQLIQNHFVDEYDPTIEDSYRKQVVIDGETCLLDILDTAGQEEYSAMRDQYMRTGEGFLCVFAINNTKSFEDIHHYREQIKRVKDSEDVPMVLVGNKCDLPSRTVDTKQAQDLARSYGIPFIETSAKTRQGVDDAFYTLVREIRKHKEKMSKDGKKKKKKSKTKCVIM
Procedure: as §2, §3

SMILES | EC50 [1] [nM] | IC50 (GDP-loaded KRAS-G12C) [nM] | IC50 (GDP-loaded KRAS-G12V) [nM] | EC50 ([2]; Homo sapiens) [nM] | EC50 ([3]; Homo sapiens) [nM] | IC50 [4] [nM] | EC50 ([5]; Homo sapiens, ASPC1) [nM] | IC50 (GDP-loaded KRAS-G12D) [nM] | EC50 [2] [nM] | EC50 [3] [nM] | EC50 ([5]; read-out: AsPC1 pERK EC50) [nM]
C#Cc1c(F)ccc2cc(O)cc(-c3nc4c5c(nc(OC[C@@]67CCCN6[C@H](COc6cc(C(F)(F)F)ncn6)CC7)nc5c3F)N3CCCOC[C@@H]3C=C4C)c12 [Example 18-1, 5-ethynyl-6-fluoro-4-((S)-1-fluoro-4-methyl-12-(((3S,7aS)-3-(((6-(trifluoromethyl)pyrimidin-4-yl)oxy)methyl)tetrahydro-1H-pyrrolizin-7a(5H)-yl)methoxy)-5a,6,9,10-tetrahydro-8H-7-oxa-3,10a,11,13-tetraazanaphtho[1,8-ab]heptalen-2-yl)naphthalen-2-ol] | 3.53 | 3.59 | 2.77 | 3.25 | 12.8 | 5.56 | 14 | 3.27 | – | – | –
C#Cc1c(F)ccc2cc(O)cc(-c3nc4c5c(nc(OC[C@@]67CCCN6[C@H](COc6cc(C(F)(F)F)cnn6)CC7)nc5c3F)N3CCCOC[C@@H]3C=C4C)c12 [Example 18-2] | 3.63 | 0.49 | 0.42 | 0.82 | 1.05 | 0.36 | 1.39 | 0.65 | – | – | –
C#Cc1c(F)ccc2cccc(-c3nc4c5c(nc(OC[C@@]67CCCN6[C@H](COC(=O)N6CCCCC6)CC7)nc5c3F)N3CCCOC[C@@H]3CC4)c12 [Example 16-2] | 1.99 | 0.19 | 0.2 | 0.28 | 0.56 | 0.17 | 0.62 | 0.24 | – | – | –
C#Cc1c(F)ccc2cc(N)cc(-c3nc4c5c(nc(OC[C@@]67CCCN6[C@H](COc6cc(C(F)(F)F)cnn6)CC7)nc5c3F)N3CCCOC[C@@H]3CC4)c12 [Example 7-5] | 1.4 | 0.55 | 0.65 | 1.34 | 3.48 | 1.8 | 21.2 | 1.76 | – | – | –
C#Cc1c(F)ccc2cc(O)cc(-c3nc4c5c(nc(OC[C@@]67CCCN6[C@H](COc6cc(C(F)(F)F)ncn6)CC7)nc5c3F)N3CCCOC[C@@H]3CC4)c12 [Example 6-12] | 1.34 | 0.92 | 0.22 | 0.149 | 0.73 | 0.67 | 1.53 | 0.47 | – | – | –
C#Cc1c(F)ccc2cccc(-c3nc4c5c(nc(OC[C@@]67CCCN6[C@H](COc6cc(C(F)(F)F)ncn6)CC7)nc5c3F)N3CCCOC[C@@H]3CC4)c12 [Example 6-15] | 231 | 36.6 | 29.2 | 403 | > 749 | 67.9 | > 859 | 38.5 | – | – | –
C#Cc1c(F)ccc2cc(N)cc(-c3nc4c5c(nc(OC[C@@]67CCCN6[C@H](COc6cc(C(F)(F)F)ncn6)CC7)nc5c3F)N3CCCOC[C@@H]3CC4)c12 [Example 7-4] | 4.47 | 1.02 | 2.01 | 9.04 | 8.95 | 2.26 | 26.3 | 4.5 | – | – | –
C#Cc1c(F)ccc2cc(O)cc(C3=C(F)C4N=C(OC[C@@]56CCCN5C[C@H](F)C6)N=C5C4C(=C3F)C(C)=C[C@H]3COCCCN53)c12 (some centres unmarked) [Example 6-28] | 11.7 | 2.53 | 2.69 | 2.34 | 7.98 | 3.43 | 17.1 | 2.82 | – | – | –
C#Cc1c(F)ccc2cc(O)cc(-c3nc4c5c(nc(OCC67CCCN6[C@H](COCC(F)(F)F)CC7)nc5c3F)N3CCCOCC3CC4)c12 (some centres unmarked) [Example 22-8] | 2.15 | 0.67 | 1.37 | 5.57 | 6.08 | 1.61 | 14.6 | 0.36 | – | – | –
C#Cc1c(F)ccc2cc(O)cc(-c3nc4c5c(nc(OC[C@@]67CCCN6[C@H](COC(C(F)(F)F)(C(F)(F)F)C(F)(F)F)CC7)nc5c3F)N3CCCOC[C@@H]3CC4)c12 [Example 22-4] | 3.16 | 1.83 | 1.59 | 0.86 | 1.97 | 1.2 | 2.31 | 1.65 | – | – | –
C#Cc1c(F)ccc2cc(O)cc(-c3c(F)c4c5c(nc(OC[C@@]67CCCN6C[C@H](F)C7)nc5c3F)N3CCCOC[C@@H]3CC4)c12 (mixture of isomers) [Example 6-21] | 5.94 | 0.54 | 0.4 | 1.08 | 1.78 | 0.88 | 3.12 | 0.87 | – | – | –
C#Cc1c(F)ccc2cc(O)cc(-c3nc4c5c(nc(OCC67CCCN6[C@H](COC(C(F)(F)F)C(F)(F)F)CC7)nc5c3F)N3CCCOCC3CC4)c12 (some centres unmarked) [Example 22-7] | 9.83 | 34.7 | 12.6 | 6.69 | 37.1 | 30.6 | 54.6 | 31 | – | – | –
C#Cc1c(F)ccc2cc(O)cc(-c3nc4c5c(nc(OCC6(CN7CCCCC7)CC6)nc5c3F)N3CCCOC[C@@H]3CC4)c12 [Example 15-1, (S)-5-ethynyl-6-fluoro-4-(1-fluoro-12-((1-(piperidin-1-ylmethyl)cyclopropyl)methoxy)-4,5,5a,6,9,10-hexahydro-8H-7-oxa-3,10a,11,13-tetraazanaphtho[1,8-ab]heptalen-2-yl)naphthalen-2-ol] | 181 | 37.1 | 47.7 | 217 | 572 | 69.1 | 655 | 56.4 | – | – | –
C#Cc1c(F)ccc2cc(O)cc(-c3nc4c5c(nc(OC[C@@]67CCCN6C[C@H](F)C7)nc5c3F)N3CCCCC3CCn3nncc3-4)c12 (mixture of isomers) [Example 11-1, 5-ethynyl-6-fluoro-4-(1-fluoro-14-(((2R,7aS)-2-fluorotetrahydro-1H-pyrrolizin-7a(5H)-yl)methoxy)-8,8a,9,10,11,12-hexahydro-7H-3,5,6,6a,12a,13,15-heptaazabenzo[4,5]cyclopenta[8,9]cyclonona[1,2,3-de]naphthalen-2-yl)naphthalen-2-ol] | > 1000 | > 1000 | > 1000 | – | – | > 1000 | – | > 1000 | > 1000 | > 1000 | > 1000
C#Cc1c(F)ccc2cc(O)cc(-c3nc4c5c(nc(OC[C@@]67CCCN6C[C@H](F)C7)nc5c3F)N3CCOCCC3CC4)c12 (mixture of isomers) [Example 6-13] | 1.59 | 0.06 | 0.1 | 0.23 | 2.14 | 0.06 | 11.7 | 0.15 | – | – | –
Cc1cc(N)nc(-c2c(Cl)c3c4c(nc(OC[C@@]56CCCN5C[C@H](F)C6)nc4c2F)N2CCCOCC2CC3)c1C(F)(F)F (mixture of isomers) [Example 21-1, 6-(12-chloro-10-fluoro-8-(((2R,7aS)-2-fluorotetrahydro-1H-pyrrolizin-7a(5H)-yl)methoxy)-1,4,5,13,14,14a-hexahydro-3H-[1,4]oxazepino[4′,3′:1,7]azepino[2,3,4-de]quinazolin-11-yl)-4-methyl-5-(trifluoromethyl)pyridin-2-amine] | > 956 | 1440 | 4960 | – | – | 5290 | – | 17500 | 4640 | 7240 | 27100
